From US20190290623A1, “USE OF TIOTROPIUM BROMIDE TO PREVENT PULMONARY OXYGEN TOXICITY” (priority 2018, published 2019)

What was measured:
Format in all cases: in vivo
[1] = tested on: swine exposed to 1.5 ATA hyperbaric oxygen for 17.5 hr; experiment: Experiment 1 shallow exposure simulation: pulmonary compliance; conditions: 1.5 ATA O2 17.5 hr; 18 mcg nebulized pre-dive; n=7; p=0.8364
Method: Experiment 1 is designed to evaluate the efficacy of tiotropium bromide administered pre-dive in reducing decrements in pulmonary function due to PO2T following a 17.5 hour, 1.5 ATA hyperbaric oxygen exposure. This dive profile was selected because it was of sufficient duration to elicit persistent pulmonary function decrement in humans.
The swine were anesthetized with propofol (20 cc, I.V. target, adjusted as needed to optimize sedation), intubated and ventilated. Anesthetized swine were shaved, then ECG and EEG electrodes were placed. Animals were then paralyzed with Atracurium Besylate (50 mg, IV) for accurate pulmonary function measurements of quasi-static and dynamic compliance.
Following baseline pulmonary function measurements, the swine were randomized to receive equivalent volumes of normal saline or tiotropium bromide (18 mcg) via nebulizer. The swine were then ventilated until muscle tone was regained. […]
Next, the swine were switched to 100% oxygen breathing gas and remained at 1.5 ATA for 17.5 hr. […] When fully sedated, the swine were ventilated, paralyzed with Atracurium Besylate, and post-dive measurements of pulmonary function were recorded. During all phases of study the swine were continuously monitored for signs of seizure or distress. […]

[2] = tested on: swine exposed to 2.5 ATA hyperbaric oxygen for 5.5 hr; experiment: Experiment 2: lung wet-dry ratio; conditions: 2.5 ATA O2 5.5 hr; n=13; mean ± SEM; p=0.4566 vs saline
Source text: Lungs were collected from the swine during necropsy. The right lung was collected for measurement of wet-dry ratios. The left lung was fixed via tracheal instillation at a standard pressure of 25 cmH2O with 10% neutral buffered formalin (NBF). The lungs were then sectioned into ten, one centimeter (cm) cranial to caudal serial sections. Three, 1 cm blocks were cut from each section and post-fixed in 10% NBF, trimmed, embedded in paraffin and cut into 5 μm sections for histological staining. Histology slides were de-paraffinized and stained with hematoxylin and eosin. A board-certified veterinary pathologist blinded to group randomization reviewed all gross necropsies, images, and histology slides.
All data were compiled into Excel spreadsheets then imported into Graphpad Prism 7.02 for statistical analysis. […] To allow for accurate data comparison between animals and/or groups the pressure volume curves were separated into inspiratory arms (0 to 40 cm H2O) and expiratory arms (40 to −40 cm H2O). Each arm was then fit using a non-linear regression utilizing a Gaussian distribution model. Volume data was then extrapolated from the curve corresponding to pressures from 0 to 40 cmH2O at 2.5 cm H2O increments. Statistical group-wise comparison of the extrapolated inspiratory and expiratory arms were conducted using repeated measures two-way ANOVA. […]

[3] = tested on: swine exposed to 2.5 ATA hyperbaric oxygen for 5.5 hr; experiment: Experiment 2: heart rate variability (SDNN); conditions: 2.5 ATA O2 5.5 hr; mean+/−SEM; p=0.0331 vs saline
Method: The swine were prepared for ECG recording as described previously. Briefly, using an electric shaver, ECG areas were prepared bilaterally, posterior to the shoulder, lateral to the vertebrae, at approximately 4-7 cm above ribs 5-7 (bipolar derivation). Another area was prepared 2 cm lateral to the vertebrae on right side, between ribs 12-13. Newly exposed skin was rubbed with isopropyl alcohol. Disposable pre-wired (Grass Technologies/Astro-Med, Inc. Warwick, Mass.) or SF405 (KENDALL MEDI-TRACE™, Tyco Healthcare, Mansfield, Mass.) self-adhesive Ag/AgCl electrodes were placed on the proximal, symmetric sites and the ground electrode was placed at the distal site (between ribs 12-13). […]
Wideband AC amplifiers (Grass, Quincy, Mass.) were used for EEG and ECG recordings; a 0.5-35 Hz and 60 cycle notch filter setting was used. […] Heart rate variability (HRV) was calculated from pre-dive ECG epochs of at least 2 min durations using the Labchart ECG tool suite. […] Above the manually set trigger level the LabChart software looked for maximum values and measured the time interval between peaks (maximal amplitude of R-wave). […] The length of measured periods were: (1) 114.995 sec; peak-to-peak distance 0.750 t 0.0004 sec; 153 peaks; FFT 1.329 Hz=79.74 bpm; and (2) 326.52 sec; peak-to-peak distance 0.750±0.0003; 434 peaks; FFT 1.332 Hz=79.92 bpm. […]

In the case of `C[N+]1(C)[C@@H]2C[C@@H](OC(=O)C(O)(c3cccs3)c3cccs3)C[C@H]1[C@@H]1O[C@@H]12` [Tiotropium, tiotropium bromide], the “pulmonary compliance, baseline vs post-dive” value [1] is reported as “no significant changes”, the “Wet-Dry ratios of lung” value [2] is reported as 6.067±0.2305 and the “Post-dive SDNN normalized to the pre-dive SDNN” value [3] is reported as 103.5+/−15.87.
